This is an account of results in US7081460B2, “Quinazoline and quinazoline-like compounds for the treatment of integrin-mediated disorders” (Ortho-McNeil Pharmaceutical, Inc., priority 2001, dated 2006).

Structures can show the parent of a compound that is named as a salt. Where two headings read alike, the source gives them in different places.

The target in series [1] is T1, Human αvβ3 (Homo sapiens, UniProt P05106+P06756).
T1 construct: purchased Chemicon International Inc., Temecula, Calif
T1 sequence (P06756 31-889 limits assumed): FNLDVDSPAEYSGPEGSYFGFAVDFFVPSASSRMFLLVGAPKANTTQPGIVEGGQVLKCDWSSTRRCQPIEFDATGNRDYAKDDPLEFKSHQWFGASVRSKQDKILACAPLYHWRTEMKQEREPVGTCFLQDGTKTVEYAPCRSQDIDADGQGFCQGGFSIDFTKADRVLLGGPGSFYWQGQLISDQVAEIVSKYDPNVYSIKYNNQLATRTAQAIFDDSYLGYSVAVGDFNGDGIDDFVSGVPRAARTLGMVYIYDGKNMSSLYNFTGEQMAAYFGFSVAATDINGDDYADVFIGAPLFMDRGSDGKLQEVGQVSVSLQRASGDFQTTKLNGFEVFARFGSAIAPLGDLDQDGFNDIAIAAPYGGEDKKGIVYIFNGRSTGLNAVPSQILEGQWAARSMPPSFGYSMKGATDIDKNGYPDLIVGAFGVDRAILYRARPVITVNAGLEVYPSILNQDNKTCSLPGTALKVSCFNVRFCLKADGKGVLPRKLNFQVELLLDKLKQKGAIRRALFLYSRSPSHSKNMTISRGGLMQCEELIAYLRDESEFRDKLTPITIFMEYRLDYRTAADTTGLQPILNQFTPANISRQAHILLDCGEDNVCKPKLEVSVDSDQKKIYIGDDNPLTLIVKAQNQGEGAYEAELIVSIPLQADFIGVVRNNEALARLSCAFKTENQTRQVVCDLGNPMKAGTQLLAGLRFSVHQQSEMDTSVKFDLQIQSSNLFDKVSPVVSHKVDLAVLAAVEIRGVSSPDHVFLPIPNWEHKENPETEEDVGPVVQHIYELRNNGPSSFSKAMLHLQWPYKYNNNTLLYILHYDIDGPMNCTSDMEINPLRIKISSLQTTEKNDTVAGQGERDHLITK
T1 sequence (P06756 891-1048 partner limits assumed): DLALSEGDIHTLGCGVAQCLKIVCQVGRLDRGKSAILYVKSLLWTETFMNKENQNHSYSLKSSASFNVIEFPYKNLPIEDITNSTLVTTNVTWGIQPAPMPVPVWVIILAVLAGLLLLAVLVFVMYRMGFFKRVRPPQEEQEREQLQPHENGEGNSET
T1 sequence (P05106 27-788): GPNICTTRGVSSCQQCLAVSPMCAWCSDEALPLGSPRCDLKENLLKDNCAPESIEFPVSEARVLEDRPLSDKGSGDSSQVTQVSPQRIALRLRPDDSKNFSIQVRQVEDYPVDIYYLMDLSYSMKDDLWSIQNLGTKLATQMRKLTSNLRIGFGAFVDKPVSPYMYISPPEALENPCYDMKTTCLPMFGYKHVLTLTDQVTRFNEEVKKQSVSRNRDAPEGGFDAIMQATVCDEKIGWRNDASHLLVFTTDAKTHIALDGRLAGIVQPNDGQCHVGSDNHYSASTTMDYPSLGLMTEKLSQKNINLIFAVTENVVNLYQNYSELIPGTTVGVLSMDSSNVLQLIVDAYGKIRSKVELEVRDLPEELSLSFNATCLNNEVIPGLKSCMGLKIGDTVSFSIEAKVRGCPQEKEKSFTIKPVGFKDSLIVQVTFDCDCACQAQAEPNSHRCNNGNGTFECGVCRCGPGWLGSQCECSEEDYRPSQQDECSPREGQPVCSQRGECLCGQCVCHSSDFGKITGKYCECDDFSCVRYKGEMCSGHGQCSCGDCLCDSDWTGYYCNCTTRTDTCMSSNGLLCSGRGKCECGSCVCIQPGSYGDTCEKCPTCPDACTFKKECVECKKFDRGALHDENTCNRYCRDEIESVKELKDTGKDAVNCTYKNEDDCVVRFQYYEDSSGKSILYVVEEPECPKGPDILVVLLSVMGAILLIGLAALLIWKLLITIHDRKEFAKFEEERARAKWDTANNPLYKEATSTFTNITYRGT
Put plainly: In vitro solid phase purified αvβ3 binding assay (vitronectin/αvβ3). The essentials: (§1)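 αvβ3 (1 μg/ml) immobilised in Tris buffer with Ca2+/Mg2+/Mn2+, compounds added 5 min before 5 nM vitronectin, 3 h at 37 °C; bound vitronectin detected by anti-vitronectin antibody/peroxidase ELISA at 490 nm. GPIIb/IIIa coated overnight at 4 °C, biotinylated fibrinogen with compounds 2–4 h RT in modified Tyrodes buffer, avidin-HRP/o-phenylenediamine read at 490 nm.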

Series [2] addresses GPIIb/IIIa (Homo sapiens, UniProt P05106+P08514). Put plainly: In vitro solid phase purified glycoprotein IIb/IIIa binding assay (biotinylated fibrinogen). The essentials: as §1
[3] abbreviates: isolated human αvβ3, 5 nM vitronectin, read-out: αvβ3 Binding IC50.
Setting [4] is: RGD-affinity purified GPIIb/IIIa, biotinylated fibrinogen, read-out: GPIIb/IIIa Binding IC50.

Sequence of GPIIb/IIIa (P08514 32-887 limits assumed): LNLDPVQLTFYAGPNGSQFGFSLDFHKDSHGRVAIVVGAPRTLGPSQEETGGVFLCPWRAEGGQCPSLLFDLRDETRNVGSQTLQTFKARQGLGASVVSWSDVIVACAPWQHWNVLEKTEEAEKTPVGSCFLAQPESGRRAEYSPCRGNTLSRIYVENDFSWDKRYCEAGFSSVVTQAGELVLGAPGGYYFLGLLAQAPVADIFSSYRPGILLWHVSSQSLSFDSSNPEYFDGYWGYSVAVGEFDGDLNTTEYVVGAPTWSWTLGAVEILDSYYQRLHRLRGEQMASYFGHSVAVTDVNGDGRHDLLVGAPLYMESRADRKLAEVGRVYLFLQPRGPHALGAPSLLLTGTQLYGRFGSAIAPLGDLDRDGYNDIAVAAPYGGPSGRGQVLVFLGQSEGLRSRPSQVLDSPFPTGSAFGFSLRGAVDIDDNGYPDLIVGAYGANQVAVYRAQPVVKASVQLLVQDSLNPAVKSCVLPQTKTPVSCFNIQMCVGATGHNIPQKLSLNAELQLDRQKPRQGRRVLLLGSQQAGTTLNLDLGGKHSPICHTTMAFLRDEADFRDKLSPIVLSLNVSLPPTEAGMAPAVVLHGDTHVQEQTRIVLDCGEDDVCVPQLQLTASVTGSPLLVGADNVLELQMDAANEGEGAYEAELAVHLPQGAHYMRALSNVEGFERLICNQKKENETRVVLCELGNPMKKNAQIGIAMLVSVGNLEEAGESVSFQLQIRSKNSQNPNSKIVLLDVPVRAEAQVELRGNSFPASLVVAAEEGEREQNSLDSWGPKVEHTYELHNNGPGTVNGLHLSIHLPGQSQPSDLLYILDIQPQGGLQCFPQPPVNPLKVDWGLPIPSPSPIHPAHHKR
Sequence of GPIIb/IIIa (P08514 891-1039 partner limits assumed): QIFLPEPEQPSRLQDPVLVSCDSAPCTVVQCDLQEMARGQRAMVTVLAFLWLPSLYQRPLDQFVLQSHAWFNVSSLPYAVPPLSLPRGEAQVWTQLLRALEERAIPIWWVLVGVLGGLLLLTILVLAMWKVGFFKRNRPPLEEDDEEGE
Sequence of GPIIb/IIIa (P05106 27-788): as the sequence (P05106 27-788) above

For the compound `Cc1c(C)c(C)c(S(=O)(=O)N[C@@H](Cc2nc3ccc(CCCNc4ccccn4)cc3c(=O)[nH]2)C(=O)O)c(C)c1C` (as salt: HCl) [Compound 11, (αS)-3,4-dihydro-4-oxo-α-[[(2,3,4,5,6-pentamethylphenyl)sulfonyl]amino]-6-[3-(2-pyridinylamino)propyl]-2-quinazolinepropanoic Acid], the melting point (commonly the temperature, or range, at which the solid turns liquid) lay in the range of 218 to 221 °C.

`Cc1c(C)c(C)c(S(=O)(=O)N[C@@H](Cc2nc3ccc(/C=C/CNC4=NCCN4)cc3c(=O)[nH]2)C(=O)O)c(C)c1C` (as salt: TFA) [Compound 1, 6-[(1E)-3-[(4,5-dihydro-1H-imidazol-2-yl)amino]-1-propenyl]-(αS)-3,4-dihydro-4-oxo-α-[[(2,3,4,5,6-pentamethylphenyl)sulfonyl]amino]-2-quinazolinepropanoic Acid] yielded a melting point of 131 to 135 °C.

Compound `Cc1c(C)c(C)c(S(=O)(=O)N[C@@H](Cc2nc3ccc(/C=C/CNc4ccccn4)cc3c(=O)[nH]2)C(=O)O)c(C)c1C` (as salt: TFA) [Compound 10, (αS)-3,4-dihydro-4-oxo-α-[[(2,3,4,5,6-pentamethylphenyl)sulfonyl]amino]-6-[(1E)-3-(2-pyridinylamino)-1-propenyl]-2-quinazolinepropanoic Acid] displayed a melting point of 148 to 151 °C.

For the compound `CCCCS(=O)(=O)N[C@@H](Cc1nc2ccc(/C=C/CNC(=O)NCc3ccccc3)cc2c(=O)[nH]1)C(=O)O` [Compound 73, α-[(butylsulfonyl)amino]-(αS)-3,4-dihydro-4-oxo-6-[(1E)-3-[[[(phenylmethyl)amino]carbonyl]amino]-1-propenyl]-2-quinazolinepropanoic acid], the IC50 in series [1] (setting [3]) is 2 µM; in series [2] (setting [4]), over 50 µM.

`Cc1c(C)c(C)c(S(=O)(=O)N[C@@H](Cc2nc3ccc(/C=C/CNC4=NCCCCC4)cc3c(=O)[nH]2)C(=O)O)c(C)c1C` [Compound 74, (αS)-3,4-dihydro-4-oxo-α-[[(2,3,4,5,6-pentamethylphenyl)sulfonyl]amino]-6-[(1E)-3-[(3,4,5,6-tetrahydro-2H-azepin-7-yl)amino]-1-propenyl]-2-quinazolinepropanoic acid]: the IC50 in series [1] (setting [3]) is 5.4 µM; in series [2] (setting [4]), 1.3 µM.

With `Cc1c(C)c(C)c(S(=O)(=O)N[C@@H](Cc2nc3ccc(/C=C/CNC(=O)NC4CCCCC4)cc3c(=O)[nH]2)C(=O)O)c(C)c1C` [Compound 75, 6-[(1E)-3-[[(cyclohexylamino)carbonyl]amino]-1-propenyl]-(αS)-3,4-dihydro-4-oxo-α-[[(2,3,4,5,6-pentamethylphenyl)sulfonyl]amino]-2-quinazolinepropanoic acid], the IC50 is 0.62 µM in series [1] (setting [3]) and 4.9 µM in series [2] (setting [4]).

Regarding `O=C(NC/C=C/c1ccc2nc(C[C@H](NS(=O)(=O)CCc3cccc4ccccc34)C(=O)O)[nH]c(=O)c2c1)NCc1ccccc1` [Compound 76, (αS)-3,4-dihydro-α-[[[2-(1-naphthalenyl)ethyl]sulfonyl]amino]-4-oxo-6-[(1E)-3-[[[(phenylmethyl)amino]carbonyl]amino]-1-propenyl]-2-quinazolinepropanoic acid], the IC50 in series [1] (setting [3]) was over 0.5 µM; in series [2] (setting [4]), 45 µM.

Take `COc1ccc(OC(=O)N[C@@H](Cc2nc3ccc(/C=C/CNC(=O)NCc4ccccc4)cc3c(=O)[nH]2)C(=O)O)cc1` [Compound 77, (αS)-3,4-dihydro-α-[[(4-methoxyphenoxy)carbonyl]amino]-4-oxo-6-[(1E)-3-[[[(phenylmethyl)amino]carbonyl]amino]-1-propenyl]-2-quinazolinepropanoic acid]: the IC50 is over 0.5 µM in series [1] and 46 µM in series [2].

With `Cn1c(C(CC(=O)O)c2ccccc2)nc2ccc(C=CCNC3=NCCN3)cc2c1=O` [Compound 78, (βR,S)-3,4-dihydro-3-methyl-4-oxo-β-phenyl-6-[(1E)-3-[(4,5-dihydro-1H-imidazol-2-yl)amino]-1-propenyl]-2-quinazolinepropanoic acid], the IC50 in series [1] (setting [3]) is 5.4 µM; in series [2] (setting [4]), 55 µM.

As for `C/C(=C\NC(=O)NC1CCCCC1)c1ccc2nc(C[C@H](NS(=O)(=O)c3c(C)c(C)c(C)c(C)c3C)C(=O)O)[nH]c(=O)c2c1` [Compound 79, 6-[(E)-2-[[(cyclohexylamino)carbonyl]amino]-1-methylethenyl]-(αS)-3,4-dihydro-4-oxo-α-[[(2,3,4,5,6-pentamethylphenyl)sulfonyl]amino]-2-quinazolinepropanoic acid], the IC50 in series [1] (setting [3]) was over 0.5 µM; in series [2] (setting [4]), 7.3 µM.

In the case of `Cc1coc(NC/C=C/c2ccc3nc(C[C@H](NS(=O)(=O)c4c(C)c(C)c(C)c(C)c4C)C(=O)O)[nH]c(=O)c3c2)n1` [Compound 81, (αS)-3,4-dihydro-6-[(1E)-3-[(4-methyl-2-oxazolyl)amino]-1-propenyl]-4-oxo-α-[[(2,3,4,5,6-pentamethylphenyl)sulfonyl]amino]-2-quinazolinepropanoic acid], the IC50 in series [1] (setting [3]) is over 5 µM; in series [2] (setting [4]) it was 7.1 µM.

Turning to `O=C(O)CCc1nc2ccc(/C=C/CNc3ccccn3)cc2c(=O)n1Cc1ccccc1` [Compound 82, 3,4-dihydro-4-oxo-3-(phenylmethyl)-6-[(1E)-3-(2-pyridinylamino)-1-propenyl]-2-quinazolinepropanoic acid], the IC50 in series [1] (setting [3]) is over 5 µM; in series [2] (setting [4]), over 50 µM.
